{"source": "PubChem BioAssay (NCI)", "assay_in_all_cases": "growth of human tumour cells (NCI), 48 h", "key": {"DMS 273 small cell lung": {"test_system": "DMS 273 small cell lung"}, "EKVX NSCLC": {"test_system": "EKVX NSCLC"}, "NCI-H23 lung": {"test_system": "NCI-H23 lung"}, "786-0 renal": {"test_system": "786-0 renal"}, "KM20L2 colon": {"test_system": "KM20L2 colon"}, "UO-31 renal": {"test_system": "UO-31 renal"}, "A498 renal": {"test_system": "A498 renal"}, "MDA-MB-435": {"test_system": "MDA-MB-435"}, "K-562 leukemia": {"test_system": "K-562 leukemia"}, "DLD-1 colon": {"test_system": "DLD-1 colon"}, "M19-MEL melanoma": {"test_system": "M19-MEL melanoma"}, "MDA-N": {"test_system": "MDA-N"}}, "note": "“And” between values parts separate entries of the source, which are not always exact repeats. Equal entries are not always repeated.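 Each compound was tested at five concentrations against cells in 96-well plates for 48 hours. TGI: concentration producing complete growth inhibition.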"}
{"smiles": "CC[C@H]1CN2CCc3cc(OC)c(OC)cc3[C@@H]2C[C@@H]1C[C@H]1NCCc2cc(OC)c(OC)cc21", "values": [{"measurement": "TGI", "setting": "DMS 273 small cell lung", "value": "180 nM and 46.3 nM"}, {"measurement": "TGI", "setting": "EKVX NSCLC", "value": "151 nM and 144 nM"}, {"measurement": "TGI", "setting": "NCI-H23 lung", "value": "140 nM and 26 nM"}, {"measurement": "TGI", "setting": "786-0 renal", "value": "62.1 nM and 248 nM"}, {"measurement": "TGI", "setting": "KM20L2 colon", "value": "488 nM and 312 nM"}, {"measurement": "TGI", "setting": "UO-31 renal", "value": "242 nM and 978 nM"}, {"measurement": "TGI", "setting": "A498 renal", "value": 176, "unit": "nM"}, {"measurement": "TGI", "setting": "MDA-MB-435", "value": 44.2, "unit": "nM"}, {"measurement": "TGI", "setting": "K-562 leukemia", "value": 93.2, "unit": "nM"}, {"measurement": "TGI", "setting": "DLD-1 colon", "value": "591 nM and 408 nM"}, {"measurement": "TGI", "setting": "M19-MEL melanoma", "value": "82.4 nM and 147 nM"}, {"measurement": "TGI", "setting": "MDA-N", "value": 58.9, "unit": "nM"}]}
